Data as given in article PMC4633020 (Journal of medicinal chemistry, 2015).
Values after ≈ are worked out from the molar mass of the structure shown.

Assays:
Assay in all cases: MIC, additional E. faecium strains
Type in all cases: cell-based
E. faecium ATCC BAA 2127 = conditions: Enterococcus faecium, BAA2127
[1] = test system: E. faecium 119-39A (Van S); conditions: Enterococcus faecium
E. faecium C9 = conditions: Enterococcus faecium

Structure (SMILES): CN[C@H](CC(C)C)C(=O)N[C@H]1C(=O)N[C@@H](CC(N)=O)C(=O)N[C@H]2C(=O)N[C@H]3C(=O)N[C@H](C(=O)N[C@H](C(=O)O)c4cc(O)cc(O)c4-c4cc3ccc4O)[C@H](O)c3ccc(c(Cl)c3)Oc3cc2cc(c3O[C@@H]2O[C@H](CO)[C@@H](O)[C@H](O)[C@H]2O[C@H]2C[C@](C)(N)[C@H](O)[C@H](C)O2)Oc2ccc(cc2Cl)[C@H]1O [vancomycin]
- MIC (E. faecium ATCC BAA 2127): 1 µg/mL (≈ 0.69 µM)
- MIC [1]: 0.5 µg/mL (≈ 0.345 µM)
- MIC (E. faecium C9): 2 µg/mL (≈ 1.38 µM)
